# Measurements reported in PMC10895676, “Antiviral Activity of Lipophilic Nucleoside Tetraphosphate Compounds” (Journal of Medicinal Chemistry, 2024).
# “Also recorded” adds a separate entry of the source.
# How the values were obtained:
# [1] = Chemical hydrolysis in aqueous buffers (PBS pH 7.3 / 8.0, citrate buffer pH 2.0), RP18-HPLC; type: physicochemical; details: phosphate buffered saline; 25 mM PBS, pH 7.3, 37 °C; read-out: PBS pH 7.3 t1/2 (converted)
# Procedure: All metabolite mixtures were analyzed and quantified by means of analytical RP18-HPLC (UV detection).
# The solution was incubated at 37 °C in a thermomixer. […] for each extraction and stored at −30 °C. When testing, samples were warmed up to room temperature, and 25 or 20 μL of the liquid was taken and injected into the analytical RP-18-HPLC instrument. Further aliquots were taken for monitoring the kinetic hydrolysis.
# 5.88 g of citric acid and 3.58 g of NaCl were dissolved in 82 mL of hydrochloric acid (0.1 mol/L). Then, sodium hydroxide was added to adjust the pH to 2.0.
# human DNA polymerase β = biological target: T1, human DNA polymerase β (Homo sapiens, UniProt P06746); assay: Primer extension assay using human DNA polymerase β; type: biochemical; details: 60 min, 2 U, 37 °C
# T1 construct: purchased Chimerx
# From the text: Encouraged by the previously obtained results that γ-phosphate-modified-d4TDPs 3, γ-monoalkylated d4TTP derivatives as well as d4TDP were accepted as substrates by HIV-RT,[49],[50],[55],[59]−[61] δ-dialkylated d4T tetraphosphate analogues 4,5, δ-monoalkylated d4T tetraphosphate analogues 20 and 24 and d4T4P were investigated in primer extension assays in the presence of HIV-RT or the three different human DNA polymerases α, β and γ. D4TTP (for the compounds 4–9) and the natural thymidine triphosphate (TTP) were used as reference compounds.
# (§1) Figure 6 Primer extension assay using HIV-RT (A), human polymerases α (B), β (C), and γ (D). (Figure 6A). Primer extension assay using HIV-RT (30 min, 6U). Lane 1: (+) dATP, dCTP, dGTP, and TTP with HIV-RT. Lane 2: (−) dATP, dCTP, dGTP, and TTP without HIV-RT. Lane 3: TTP. […] Lane 5: δ-(C4; C18)-d4T4P 4d. […] Lane 7: δ-(C18)-d4T4P 20. Lane 8: δ-C-(C18)-d4T4P 24. Lane 9: d4T4P. Lane 10: d4TTP. Lane 11: d4TDP. HIV-RT assay reaction conditions: 50 mM Tris–HCl (pH 8.6), 10 mM MgCl2, 40 mM KCl, 250 μM dNTPs, HIV-RT (6 U), 0.20 μM DNA hybrid, primer-template-hybrid 0.32 mM in a reaction volume of 10 μL, incubated at 37 °C for 0.5 h, 80 °C for 7 min. Primer extension assays: 50 mA, 45 w for 4 h. (Figure 6B). For human DNA polymerase α assay (60 min, 2 U): Lane 1: (+) dATP, dCTP, dGTP, and TTP with human polymerase α. Lane 2: (−) dATP, dCTP, dGTP, and TTP without human polymerase α. Lane 3: TTP. […] Lane 5: δ-(C4; C18)-d4T4P 4d. […] Lane 7: δ-(C18)-d4T4P 20. Lane 8: δ-C-(C18)-d4T4P 24. Lane 9: d4T4P. Lane 10: d4TTP. Human DNA polymerase α assay conditions: 60 mM Tris–HCl (pH 8), 5 mM Mg(OAc)2, 100 mM KCl, 1.0 mM dithiothreitol, 0.1 mM spermine, 0.01% (w/v) bovine serum albumin, 250 μM dNTPs, 2 U human polymerase α, 0.20 μM DNA hybrid, and primer-template-hybrid 0.32 mM in a reaction volume of 10 μL, incubated at 37 °C for 1 h, 80 °C for 7 min. Primer extension assays: 50 mA, 45 w for 3 h. (Figure 6C). For human DNA polymerase β assay (60 min, 2 U): Lane 1: (+) dATP, dCTP, dGTP, and TTP with human polymerase β. Lane 2: (−) dATP, dCTP, dGTP, and TTP without human polymerase β. Lane 3: TTP. […] Lane 5: δ-(C4; C18)-d4T4P 4d. […] Lane 7: δ-(C18)-d4T4P 20. Lane 8: δ-C-(C18)-d4T4P 24. Lane 9: d4T4P. Lane 10: d4TTP. Human DNA polymerase β assay conditions: 50 mM Tris–HCl (pH 8.7), 10 mM Mg(OAc)2, 100 mM KCl, 1.0 mM dithiothreitol, 0.1 mM spermine, 0.01% (w/v) bovine serum albumin, 15% glycerol, 250 μM dNTPs, 2 U human DNA polymerase β, 0.20 μM DNA hybrid, and primer-template-hybrid 0.32 mM in a reaction volume of 10 μL, incubated at 37 °C for 1 h, 80 °C for 7 min. Primer extension assays: 50 mA, 45 w for 3 h. (Figure 6D), For the human DNA polymerase γ assay (120 min, 2 U): Lane 1: (+) dATP, dCTP, dGTP, and TTP with human polymerase γ. Lane 2: (−) dATP, dCTP, dGTP, and TTP without human polymerase γ. Lane 3: TTP. […] Lane 5: δ-(C4; C18)-d4T4P 4d. […] Lane 7: δ-(C18)-d4T4P 20. Lane 8: δ-C-(C18)-d4T4P 24. Lane 9: d4T4P. Lane 10: d4TTP. Human polymerase γ assay conditions: 60 mM Tris–HCl (pH 8), 5 mM Mg(OAc)2, 1.0 mM dithiothreitol, 0.1 mM spermine, 0.01% (w/v) bovine serum albumin, 250 μM dNTPs, 2 U human polymerase γ, 0.5 μM MnCl2, 0.20 μM DNA hybrid, primer-template-hybrid 0.32 mM in a reaction volume of 10 μL, incubated at 37 °C for 2 h, 80 °C for 7 min. Primer extension assays: 50 mA, 45 w for 3 h.
# HIV-RT and human polymerases α, β, and γ were bought from Roboklon and Chimerx. The fluorescent-labeled primer and template were obtained from Metabion. […]
# HIV-1 (HE) = assay: Anti-HIV replication assay, HIV-1 (HE) in wild-type CEM/0 cells; type: cell-based; details: Human immunodeficiency virus 1, CCRF-CEM, read-out: HIV-1 (HE) EC50
# Procedure: (§2) Inhibition of HIV-1(HE)- and HIV-2(ROD)-induced cytopathogenicity in wild-type CEM/0 CEM CD4^+ T-cells and thymidine kinase-deficient CEM/TK^– cell cultures was measured in microtiter 96-well plates containing ∼3 × 10^5 CEM cells/mL infected with 100 CCID50 of HIV per milliliter and containing appropriate dilutions of the test compounds. After 4–5 days of incubation at 37 °C in a CO2-controlled humidified atmosphere, virus-induced cellular effects and syncytia cell formation were examined microscopically. The EC50 (50% effective concentration) was defined as the compound concentration required to inhibit HIV-induced giant cell formation by 50%.
# HIV-2 (ROD) [2] = assay: Anti-HIV replication assay, HIV-2 (ROD) in wild-type CEM/0 cells; type: cell-based; details: Human immunodeficiency virus 2, CCRF-CEM, read-out: HIV-2 (ROD) EC50
# Procedure: as §2, with “microscopically.” for “microscopically. The EC50 (50% effective concentration) was defined as the compound concentration required to inhibit HIV-induced giant cell formation by 50%.”
# HIV-2 (ROD) [3] = assay: Anti-HIV replication assay, HIV-2 (ROD) in thymidine kinase-deficient CEM/TK– cells; type: cell-based; details: Human immunodeficiency virus 2, CEM-TK(-), read-out: CEM/TK– HIV-2 (ROD) EC50
# Procedure: as §2, with “microscopically.” for “microscopically. The EC50 (50% effective concentration) was defined as the compound concentration required to inhibit HIV-induced giant cell formation by 50%.”
# [4] = Cytotoxicity, inhibition of CEM cell proliferation; type: cell-based; details: human, CEM cells (CD4+ T-cells), read-out: toxicity CC50
# [5] = Cytotoxicity, inhibition of CEM/TK– cell proliferation; type: cell-based; details: human, CEM/TK– cells (CD4+ T-cells), read-out: toxicity CC50
# HIV-RT = biological target: T2, HIV-RT (Human immunodeficiency virus type 1 group M subtype B, UniProt P03366); assay: Primer extension assay using HIV-RT; type: biochemical; details: 30 min, 6 U HIV-RT, 37 °C
# T2 construct: HIV-RT HIV reverse transcriptase; purchased Roboklon
# Procedure: as §1
# HIV-RT and human polymerases α, β, and γ were bought from Roboklon and Chimerx. The fluorescent-labeled primer and template were obtained from Metabion.
# For the annealing of the primer/template mixture, 40 μL of the 10 μM primer and 60 μL of the 10 μM template were incubated for 5 min at 95 °C. Then, for optimal annealing, the temperature was reduced over a period of 2 h to 20 °C and incubated again for 20 min at 20 °C.
# For the primer extension, the reaction mixture was incubated for 30 min for the HIV-RT, 60 min for the human DNA polymerase α, and 120 min for the human DNA polymerases β and γ at 37 °C, followed by 7 min at 80 °C.
Structure (SMILES),half-life at 1.9 mM [1] [h],substrate for human DNA polymerase β (primer extension) (human DNA polymerase β),EC50 (HIV-1 (HE)) [µM],EC50 (HIV-2 (ROD) [2]) [µM],EC50 (HIV-2 (ROD) [3]) [µM],CC50 [4] [µM],CC50 [5] [µM],substrate for HIV-RT (primer extension) (HIV-RT)
"CCCCOP(=O)(OCCCC)OP(=O)(O)OP(=O)(O)OP(=O)(O)OC[C@@H]1C=C[C@H](n2cc(C)c(=O)[nH]c2=O)O1 [4a, δ-(Alkyl-C4; alkyl-C4)-d4T4P]",167,substrate,0.22 ± 0.13,0.16 ± 0.04,14.8 ± 2.8,> 100,> 100,–
"Cc1cn(C2C=CC(COP(=O)(O)OP(=O)(O)O)O2)c(=O)[nH]c1=O (stereo not shown) [d4TDP, reference compound]",–,–,–,–,–,–,–,good substrates
"Cc1cn([C@H]2C=C[C@@H](COP(=O)(O)OP(=O)(O)OP(=O)(O)O)O2)c(=O)[nH]c1=O [d4TTP, d4T triphosphate, reference compound]",–,substrate,–,–,–,–,–,incorporation of d4TMP was detected; also recorded: good substrates
